From patent publication US20220089540A1 (Board of Trustees of Michigan State University, priority 2019, published 2022)
Several values for one entry are separate records, joined by “and”; a condition that tells them apart may be missing. Identical values can stand only once. Like-named read-outs stand apart in the source and are kept apart here.

Legend:
SREBP = SREBP induction in human liver (HepG2) cells, RT-PCR; type: cell-based; settings: for fold induction at 0.3 µM: human, HepG2 cells (human liver carcinoma), read-out: Safety SREBP mRNA fold induction at 300 nM; for SREBP activation: fold induction compared to DMSO, several values per cell, Table 6
Description: The SREBP transcription factor is involved in triglyceride synthesis, and its activation correlates with increased triglycerides in vivo. […] Lower numbers indicate better safety. […] Lower numbers indicate better safety. Also, for Table 6, SREBP activation was measured as fold induction compared to DMSO, where a lower value indicates the compound is an improvement over a control.

[1] = test system: inducible nitric oxide synthase (iNOS); assay: iNOS suppression / NO assay in LPS-stimulated macrophages or RAW264.7 cells (Griess reaction); type: cell-based, mouse; settings: Mus musculus; for IC50: RAW264.7, Table 7
Description: Macrophages or RAW264.7 like-cells were treated with various concentrations of rexinoids and stimulated with lipopolysaccaride (LPS) to activate inducible nitric oxide synthase (iNOS) to produce nitric oxide. This in vitro iNOS assay was rapid, reproducible, quantitative and predictive. Nitric oxide is implicated in the apoptosis of cancer cells via regulation of RXRs. There is a tight correlation between the % reduction of iNOS and efficacy in preclinical lung cancer models. Lower numbers indicate higher efficacy.
RAW264.7 cells were incubated with 300 nM rexinoids and stimulated with 1-2 ng/ml lipopolysaccaride (LPS) for 24 hours to activate inducible nitric oxide synthase (iNOS) to produce nitric oxide. Nitric oxide released into the media was measured by the Griess reaction.
Also, for Table 6, the iNOS suppression is the percent of the LPS-stimulated control where the compounds were measured at 100 nM or 300 nM.
Macrophages or RAW264.7 cells were treated with various concentrations of rexinoids listed in Table 7 and stimulated with lipopolysaccaride (LPS) to activate inducible nitric oxide synthase (iNOS) to produce nitric oxide. Nitric oxide (NO) is implicated in the apoptosis of cancer cells via regulation of RXRs. There is a tight correlation between the % reduction of iNOS and efficacy in preclinical lung cancer models. The in vitro iNOS assay is rapid, reproducible, quantitative and predictive, as NO production is measured in culture medium using the Griess reaction. Values are either presented as % inhibition or IC50 values.

SMILES	fold induction at 0.3 µM (SREBP; 300 nM, HepG2, Table 5)	IC50 [1]	also measured
CC(C)CN(c1cc(C(C)(C)C)cc(C(C)(C)C)c1)c1ccc(C(=O)O)cn1 [drawing 82]	1.49 ± 0.6	–	–
CCCN(c1ccc(C(=O)O)cn1)c1cc(C(C)(C)C)cc2c1CCC2(C)C	–	100 to 200 nM	–
CCN(c1cc(C(C)(C)C)cc(C(C)(C)C)c1)c1ncc(C(=O)O)cn1 [drawing 66]	1.38 ± 0.4	–	–
Cc1ccc(C(C)(C)C)cc1N(CC(C)C)c1ccc(C(=O)O)cn1	4.93 ± 2.7	–	–
CC(C)N(c1cc(C(F)(F)F)cc(C(F)(F)F)c1)c1ncc(C(=O)O)cn1	–	100 to 200 nM	–
CCN(c1ccc(C(=O)O)cn1)c1cc(C(C)(C)C)ccc1C [drawing 72]	1.59 ± 0.5	–	–
CCOc1c(N(CC)c2ccc(C(=O)O)cc2)cc(C(C)(C)C)cc1C(C)(C)C [drawing 67]	1.59 ± 0.2	–	–
CCN(c1ccc(C(=O)O)cc1)c1cc(C(C)(C)C)c(OC)c(C(C)(C)C)c1 [drawing 81]	1.63 ± 0.3	–	–
CC(C)(C)c1cc(N(CC2CC2)c2ccc(C(=O)O)cn2)c2c(c1)C(C)(C)CC2	–	100 to 200 nM	–
CCCN(c1ncc(C(=O)O)cn1)c1cc(C(C)(C)C)cc2c1CCC2(C)C	–	300 to 600 nM	–
CCCCN(c1ccc(C(=O)O)cn1)c1cc(C(C)(C)C)cc2c1CCC2(C)C	–	100 to 200 nM	–
CCN(c1cc(C(F)(F)F)cc(C(F)(F)F)c1)c1ccc(C(=O)O)cn1 [drawing 79]	0.96 ± 0.5	–	–
CCCCN(c1cc(C(C)(C)C)cc(C(C)(C)C)c1)c1ccc(C(=O)O)cn1 [drawing 123]	–	–	SREBP activation (SREBP): 5.3 fold induction
C=C(c1ncc(C(=O)O)cn1)c1cc2c(cc1C)C(C)(C)CCC2(C)C [Pyrimidine Bexarotene, reference compound]	–	–	Safety SREBP mRNA fold induction at 300 nM (SREBP; 300 nM, HepG2, Table 5): 1.19 ± .1 fold
C=C(c1ccc(C(=O)O)cc1)c1cc2c(cc1C)C(C)(C)CCC2(C)C [drawing 61]	2.23 ± 0.5	–	–
CCN(c1cc(C(C)(C)C)cc(C(C)(C)C)c1)c1ccc(C(=O)O)cn1 [drawing 65]	2.62 ± 0.7	–	–
CCCCN(c1cc(C(C)(C)C)cc(C(C)(C)C)c1)c1ccc(C(=O)O)cn1 [drawing 83]	5.6 ± 3.6	–	–
CC(C)(C)c1cc(-n2c(C(F)(F)F)nc3cc(C(=O)O)ccc32)cc(C(C)(C)C)c1 [drawing 69]	1.58 ± 0.2	–	–
Cc1ccc(N(CC2CC2)c2ccc(C(=O)O)cn2)cc1C(F)(F)F	–	300 to 600 nM	–
C=C(c1ccc(C(=O)O)cc1)c1cc(C(C)C)c(OCC)cc1C [Compound 2, 4-{1-[4-ethoxy-2-methyl-5-(propan-2-yl)phenyl]ethenyl}benzoic Acid]	–	–	activity at 0.3 µM ([1]; 300 nM, RAW264.7, 1-2 ng/ml LPS, 24 hours, Table 3, read-out: iNOS (300 nM)): 45%
Cc1ccc(C(C)(C)C)cc1N(c1ccc(C(=O)O)cn1)C(C)C	0.98 ± 0.06	–	–
Cc1ccc(N(CC(C)C)c2ccc(C(=O)O)cn2)cc1C(F)(F)F [6-{[4-methyl-3-(trifluoromethyl)phenyl](2-methylpropyl)amino}pyridine-3-carboxylic Acid]	–	300 to 600 nM	–
CCCN(c1cc(C(C)(C)C)cc(C(C)(C)C)c1)c1ncc(C(=O)O)cn1	1.25 ± 0.1	–	–
CC(C)(C)c1cc(-n2c(C(F)(F)F)nc3cc(C(=O)O)ccc32)cc(C(C)(C)C)c1 [drawing 109]	–	–	activity at 0.3 µM ([1]; RAW264.7, 24 h, at 300 nM, percent of the LPS-stimulated control, lower is better, Table 6, read-out: iNOS suppression): 45%; SREBP activation (SREBP): 3.4 fold induction and 2.1 fold induction
CC(C)(C)c1cc(N(CC2CC2)c2ncc(C(=O)O)cn2)c2c(c1)C(C)(C)CC2	–	200 to 300 nM	–
CC(C)(C)c1cc(N(Cc2ccccc2)c2ccc(C(=O)O)cn2)cc(C(C)(C)C)c1 [drawing 93]	1.94 ± 0.04	–	–
CC(C)N(c1ncc(C(=O)O)cn1)c1cc(C(C)(C)C)cc2c1CCC2(C)C	–	300 to 600 nM	–
CC(C)CN(c1cc(C(C)(C)C)cc(C(C)(C)C)c1)c1ncc(C(=O)O)cn1	2.46 ± 0.5	–	–
Cc1cc2c(cc1C1(c3ncc(C(=O)O)cn3)CC1)C(C)(C)CCC2(C)C [drawing 63]	1.17 ± 0.1	–	–
